Test results published in patent US20170350876A1, “BIOSENSOR FOR SINGLE CELL ANALYSIS” (priority 2016, published 2017).

Key:
[1] = system: MCF-7 cells, cytoskeletal structure (microtubules); assay: Confocal imaging of drug treated single cells (anti-α-tubulin staining); conditions: 10.5 nM MBZ or 1 nM PTX, about 20 hours after drug treatment, compared with CTRL
MCF-7 single cells = assay: Single cell impedance monitoring on the biosensor (EDR single cell analysis); type: cell-based, human; conditions: for mean impedance changes of the single cells over time, in words: 2.1 and 10.5 nM MBZ, 0.1 and 1 nM PTX, nano-roughened biosensor, about 4 kHz, FIG. 12A
Method: MCF-7 cell lines which were acquired to be used in this example. The cell lines have been separated from grad I human breast tumors. The cell lines were maintained at 37° C. in an incubator (about 5% CO2, about 95% clean air) and in RPMI-1640 medium supplemented with about 5% fetal bovine serum and about 1% penicillin/streptomycin. The fresh medium was replaced every other day. In order to detach cell from the substrate and become suspended in cell solution, cells was trypsynized. As performing cell culturing process at room temperature of about 20° C. -22° C., trypsinization should be done in less than about 6 minutes to minimize the influence of trypsinization. The cell solution was dropped onto an exemplary biosensor, which was fabricated according to EXAMPLE 1, and then the biosensor was maintained in an incubator for about 4 hours to reach cells attachment on the biosensor surface and trapping single cells within microwells of the biosensor.
Exemplary biosensors with cell solutions dropped onto them (as described herein in EXAMPLE 2) were maintained in an incubator for about 4 hours to reach cells attachment on biosensors surface. MBZ and PTX antitubulin drugs were added into the microwells containing single cells in low concentrations (about 2.1 nM for MBZ and about 0.1 nM for PTX) and high concentrations (about 10.5 nM for MBZ and about 1 nM for PTX) concentrations. The signals were recorded 2 hours, 5 hours, 8 hours, 20 hours, 32 hours, and 44 hours after drug addition that means 6 hours, 9 hours, 12 hours, 24 hours, […]. Electrical signals Measurements were collected in frequencies ranged from about 1 KHz to about 60 KHz by impedance measurement system (electrical signal extraction board) at about every 2 hours. A small “ac” sinusoidal signal was applied to the sensors. For different frequencies of the “ac” signal, the sensitivity of the sensor would vary which is called as the frequency characteristics. The bias voltage of the system was about 40 mV which wasn't destructive for cellular metabolism and a series resistance was used as current limiter element. For each cell trapped in each microwell of the biosensors, four electrodes may be used for signal extraction in two states (with up-down or right-left neighbor electrodes). The final result may be the average of the several signals extracted from the different sensors on a chip (several microwells on a biosensor) to consider cellular heterogeneity and different positioning of the cells relative to the electrodes and other parameters.
FIGS. 10A-10F show impedance diagrams for a MCF-7 single cell seeded and trapped in a microwell between electrodes about 4 hours after dropping the solution containing cells, which was assumed as an initial time (T=0) for all measurement experiments. After the attachment of the cell on the region between recording or sensing electrodes (after about 4 hours), observable increment in impedance was recorded with respect to media solution covered state (curve 1001 Vs. curve 1002 in FIG. 10A). T parameter was defined as a time merit started after dropping of the cells (t=4 hours was assumed equal to T=0). Delta Z (ΔZ) may include the difference between impedance at about 4 hours after cell seeding (equal to T=0) and the 4+x^th hours (x may be equal to 2, 5, 8, etc.), divided by the impedance at T=0. Average impedance of all frequencies were used for comparison. For better comprehension of impedimetric regime, the impedance changes of the CTRL cell were plotted in subsequently next time periods (about 6th, 9th, 12th and 24th hours) with respect to the impedance of the sensor in 4th hours after dropping the cells solution that are shown by curves 1003 (at T=2 or t=6 hours), 1004 (at T=5 or t=9 hours), 1005 (at T=8 or t=12 hours), and 1006 (at T=20 or t=24 hours) in FIG. 10B. […]

SMILES	effect on cytoskeletal structure and mitosis (confocal images), in words [1]	impedance reduction (MCF-7 single cells; 2.1 nM MBZ, T=2 hours, relative to T=0, FIG. 10C)	impedance reduction (MCF-7 single cells; 2.1 nM MBZ, T=6 hours (so in the source), relative to T=0, FIG. 10C)	impedance reduction (MCF-7 single cells; 2.1 nM MBZ, T=8 hours, relative to T=0, FIG. 10C)	impedance reduction (MCF-7 single cells; 2.1 nM MBZ, T=20 hours, relative to T=0, FIG. 10C)	impedance reduction (MCF-7 single cells; 10.5 nM MBZ, first time interval (T=2 hours), FIG. 10D)	impedance reduction (MCF-7 single cells; 10.5 nM MBZ, fourth time interval (T=20 hours), FIG. 10D)	impedance reduction (MCF-7 single cells; 10.5 nM MBZ, second time interval (T=6 hours as printed), FIG. 10D)	impedance reduction (MCF-7 single cells; 10.5 nM MBZ, third time interval (T=8 hours), FIG. 10D)	mean impedance changes of the single cells over time, in words (MCF-7 single cells)	impedance increment (MCF-7 single cells; 0.1 nM PTX, T=about 2 hours, relative to T=0, FIG. 10E)	impedance increment (MCF-7 single cells; 0.1 nM PTX, T=about 5 hours, relative to T=0, FIG. 10E)	impedance increment (MCF-7 single cells; 0.1 nM PTX, T=about 8 hours, relative to T=0, FIG. 10E)	impedance increment (MCF-7 single cells; 0.1 nM PTX, T=about 20 hours, relative to T=0, FIG. 10E)	impedance increment (MCF-7 single cells; 1 nM PTX (high dose), T=2 hours, FIG. 10F)	impedance increment (MCF-7 single cells; 1 nM PTX (high dose), T=5 hours, FIG. 10F)	impedance increment (MCF-7 single cells; 1 nM PTX (high dose), T=8 hours, FIG. 10F)	impedance increment (MCF-7 single cells; 1 nM PTX (high dose), T=20 hours, FIG. 10F)
COC(=O)Nc1nc2ccc(C(=O)c3ccccc3)cc2[nH]1 [MBZ, methyl5-benzoyl-2-benzimidazole-carbamate]	No entrance to even primary cycles of mitosis, degraded distribution of cytoskeleton and monoastered microtubules	about 5%	~10%	about 15%	~30%	about 15%	~45%	~25%	~35%	continues reduction in the impedance which exhibited a linier correlation with doses of the drug								
CC(=O)O[C@H]1C(=O)[C@@]2(C)[C@H]([C@H](OC(=O)c3ccccc3)[C@]3(O)C[C@H](OC(=O)[C@H](O)[C@@H](NC(=O)c4ccccc4)c4ccccc4)C(C)=C1C3(C)C)[C@]1(OC(C)=O)CO[C@@H]1C[C@@H]2O [PTX, Paclitaxel]	aggregated MTs as polymerizing effect of Taxol on cytoskeletal structure which induced mitotic arrest in the cell and deformed the nucleus during the mitosis									moderate impedance increment with dose dependent reductive regime	about 10%	~30%	~35%	~45%	about 5%	~15%	~20%	~25%
